The text below walks through data of ChEMBL document CHEMBL3639058, “Glycine compound” (2014).

For orientation: IC50 means the concentration that inhibits the measured activity by half.

In assay [1] the target is T1, Amine oxidase [copper-containing] 3 (Rattus norvegicus, UniProt O08590).
T1 sequence (O08590 whole entry): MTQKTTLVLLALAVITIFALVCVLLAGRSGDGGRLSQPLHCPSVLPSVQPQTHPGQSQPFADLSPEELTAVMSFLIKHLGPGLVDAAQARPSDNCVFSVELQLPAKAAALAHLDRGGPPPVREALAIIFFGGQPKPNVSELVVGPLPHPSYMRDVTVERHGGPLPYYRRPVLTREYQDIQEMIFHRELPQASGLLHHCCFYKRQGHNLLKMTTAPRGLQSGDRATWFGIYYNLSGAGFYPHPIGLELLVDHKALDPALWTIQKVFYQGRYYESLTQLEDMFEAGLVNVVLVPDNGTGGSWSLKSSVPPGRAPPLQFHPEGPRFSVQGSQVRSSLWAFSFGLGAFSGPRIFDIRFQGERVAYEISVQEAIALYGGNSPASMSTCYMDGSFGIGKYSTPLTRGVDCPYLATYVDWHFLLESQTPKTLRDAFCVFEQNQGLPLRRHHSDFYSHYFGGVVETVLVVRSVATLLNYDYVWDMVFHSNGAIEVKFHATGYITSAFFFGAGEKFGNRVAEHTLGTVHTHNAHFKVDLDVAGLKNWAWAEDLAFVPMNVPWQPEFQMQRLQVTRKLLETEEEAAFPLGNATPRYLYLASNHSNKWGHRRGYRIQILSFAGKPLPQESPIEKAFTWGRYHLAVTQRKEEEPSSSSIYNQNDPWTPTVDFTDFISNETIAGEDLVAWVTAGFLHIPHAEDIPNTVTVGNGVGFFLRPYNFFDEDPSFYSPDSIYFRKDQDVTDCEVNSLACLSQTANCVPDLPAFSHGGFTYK
Briefly: (§1) Inhibition Assay: A rat VAP-enzyme 1 (SSAO) activity was measured by a radiochemistry-enzymatic assay using 14C-benzylamine as an artificial substrate. An enzyme suspension prepared from CHO (Chinese Hamster Ovary) cells stably expressing a rat VAP-enzyme 1 (SSAO) was preincubated with the compound of the present invention in a 96-well microplate at room temperature for 30 minutes. Subsequently, the enzyme suspension was incubated with 14C-benzylamine (a final concentration of 1×10−5 mol/L) to a final volume of […] at 37° C. for 1 hour. The enzymatic reaction was stopped by the addition of 2 mol/L (50 μL) of citric acid. The oxidation products were extracted directly in a 200-μL toluene scintillator, and the radioactivity was measured with a scintillation spectrometer.

The target in assay [2] is T2, Amine oxidase [copper-containing] 3 (Homo sapiens, UniProt Q16853).
T2 sequence (Q16853 whole entry): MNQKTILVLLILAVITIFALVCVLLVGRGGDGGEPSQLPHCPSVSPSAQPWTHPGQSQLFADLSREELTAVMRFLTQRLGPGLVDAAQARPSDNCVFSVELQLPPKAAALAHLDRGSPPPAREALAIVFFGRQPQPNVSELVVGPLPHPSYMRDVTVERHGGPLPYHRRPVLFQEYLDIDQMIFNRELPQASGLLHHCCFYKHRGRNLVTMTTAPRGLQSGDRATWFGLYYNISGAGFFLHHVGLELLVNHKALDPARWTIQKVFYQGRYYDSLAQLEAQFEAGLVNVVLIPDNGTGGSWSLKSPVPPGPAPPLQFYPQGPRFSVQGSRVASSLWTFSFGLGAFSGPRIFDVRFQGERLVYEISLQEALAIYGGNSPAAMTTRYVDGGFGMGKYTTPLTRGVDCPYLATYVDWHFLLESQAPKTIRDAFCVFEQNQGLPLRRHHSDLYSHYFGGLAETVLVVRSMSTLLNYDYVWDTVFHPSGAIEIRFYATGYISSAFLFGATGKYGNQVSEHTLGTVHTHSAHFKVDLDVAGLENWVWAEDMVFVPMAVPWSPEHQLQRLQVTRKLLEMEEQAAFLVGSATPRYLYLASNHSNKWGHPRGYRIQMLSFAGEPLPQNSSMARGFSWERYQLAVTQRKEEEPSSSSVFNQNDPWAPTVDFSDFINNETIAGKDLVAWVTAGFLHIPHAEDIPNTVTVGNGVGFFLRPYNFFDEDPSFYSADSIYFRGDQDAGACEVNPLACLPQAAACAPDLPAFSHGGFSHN
The assay is described as §1, with “human VAP-1 enzyme” for “rat VAP-enzyme 1”.

As to `C[C@@H]1CN(c2ncc(-c3cccc(CN(C)C(=O)CN)c3)cn2)C[C@H](C)O1`, the IC50 in assay [1] turned out to be 61 nM.

As to `Cc1cc(CCC(=O)O)cnc1N1CCN(c2ncc(-c3cccc(CN(C)C(=O)CN)c3)cn2)CC1`, the IC50 in assay [1] is 5.2 nM; in assay [2], 9.4 nM.
